{"source": "patent US20240350494A1", "about": "“THERAPEUTIC MODULATION OF INTEGRINS” (Pliant Therapeutics, Inc., priority 2021, published 2024)", "key": {"SMAD3 phosphorylation": {"system": "SMAD3 phosphorylation", "assay": "pSMAD3/SMAD3 in lung tissue and BALF of healthy mice", "assay_type": "in vivo", "conditions": "4 days of treatment, dose dependent", "text": "It has been previously shown that inhibition of αVβ6 in the lung can be detected though measurement of phospho-SMAD (pSMAD) in alveolar macrophages. Alveolar macrophages are known to operate in a unique niche in the lung, distinct from interstitial macrophages. SMAD3 is a downstream target of the active TGF-β cytokine binding its receptor and in alveolar macrophages it is phosphorylated by homoeostatic levels of TGF-β. Accordingly, it was desirable to know whether inhibition of TGF-β activation using the disclosed compounds would result in reduced SMAD2 and SMAD3 phosphorylation.\nFIG. 2A is a graph of PSMAD3/SMAD3 in lung tissue from healthy mice administered PBS vehicle and varying levels of compound 5 for 4 days. FIG. 2B is a graph of PSMAD3/SMAD3 in BALF drawn from the same healthy mice administered PBS vehicle and varying levels of compound 5 for 4 days."}, "[1]": {"system": "Type I Collagen gene Col1a1 expression", "assay": "Precision cut lung slices, acute bleomycin exposure, Col1a1 expression", "assay_type": "cell-based, mice (C57BL/6)", "conditions": "3 days culture; integrin inhibitors at IC50 for TGF-beta activation; pan-αV and ALK5 inhibitors at 10× reported IC50; FIG. 3A", "procedure": "Mice (C57BL/6) were administered 3 U/kg of bleomycin (Teva Pharmaceuticals; North Wales, PA) on day 0 via oropharyngeal aspiration while under anesthesia. On day 14, precision cut lung slices were obtained. Following euthanization, 2% low gelling temp agarose was injected into the mouse lungs via the trachea. […] The lobes were then subjected to precision slicing to obtain samples for culture using a microtome (Compresstome VF-300-OZ, Precisionary; Greenville, NC). Individual slices were distributed in a multiwell culture plate and cultured for 3 days under control (DMSO) and test compound conditions."}, "[2]": {"assay": "SAD/MAD first-in-human pharmacokinetics", "assay_type": "in vivo", "conditions": "healthy subjects", "procedure": "Healthy human subjects (N=85) were selected for single ascending dose (SAD) and multiple ascending dose (MAD) first-in-human studies. A solution for oral administration was prepared, containing 10 mg/mL of compound 5 in a 50:50 mixture of ORA-SWEET® SF (PERRIGO®, Allegan, Michigan) and sterile water for irrigation. Sufficient solution was administered orally to the subjects to provide between 15 mg/dose and 75 mg/dose of compound 5 in the SAD study and between 10 mg/dose and 40 mg/dose of compound 5 in the MAD study. Concentrations of compound 5 were measured in the subjects by obtaining a sample of plasma from each subject at desired intervals, and subjecting the plasma to liquid chromatography-mass spectrometry-mass spectrometry (LC-MS/MS), with quantification using a calibration curve determined from a range of solutions at standardized concentrations. The lower limit of quantitation (LLOQ) of the assay was 1 ng/mL and the calibration curve range was 1 to 500 ng/mL."}, "pSMAD2:SMAD2 ratio": {"system": "pSMAD2:SMAD2 ratio", "assay": "pSMAD2:SMAD2 ratio in BAL of healthy subjects (20 or 40 mg daily)", "assay_type": "in vivo, human", "conditions": "all subjects with Cmax above 700 ng/mL; Day 7; FIG. 6G", "procedure": "In order to evaluate the change of pSMAD2 as a biomarker of TGF-β activity following administration of an integrin inhibitor, and to determine a therapeutically effective dosage and an effective blood plasma Cmax of the integrin inhibitor, healthy subjects were administered compound 5, a dual selective αVβ6/αVβ1-integrin inhibitor, and the corresponding Cmax levels and decrease in phosphorylation levels and were determined.\nHealthy non-smoking adult males without history of lung disease were selected as subjects and were randomized into 4 cohorts. Broncoalevaolar lavage samples were obtained from all subjects 1 day prior to start of treatment. Cohorts 1 and 2 were administered 20 mg of a compound daily, wherein 3 subjects were administered the dual selective αVβ6/αVβ1-integrin inhibitor (compound 5) per every 1 subject receiving a placebo compound. Cohorts 3 and 4 were administered 40 mg of a compound daily, wherein 3 subjects were administered the dual selective αVβ6/αVβ1-integrin inhibitor (compound 5) per every 1 subject receiving a placebo compound. BAL samples and blood samples were taken from all subjects on Day −1 (baseline) and on Day 7 (end of treatment)."}, "[3]": {"assay": "Unbound plasma concentration in the PET study", "assay_type": "in vivo, human", "conditions": "IPF", "procedure": "This Example was conducted as an open-label, single-dose (60 mg, 120 mg, 240 mg or 320 mg) clinical trial evaluating αVβ6 receptor occupancy in the lungs, safety, and pharmacokinetics of Compound 5 in subjects with IPF. Knottin tracer uptake kinetics were compared pre- and post-dose of the disclosed compound, as measured by standardized uptake values (SUVs) and parameters estimated from kinetic modeling in regions-of-interest on dynamic [^18F]FP-R01-MG-F2 PET/CT scans. […] Receptor occupancy was estimated from the output of the two-compartment model (VT, the volume of labeled tissue) using standard equations and fitting algorithms, and corrections for VND (non-displaceable tracer binding). For example, in FIG. 8, the data points, shown as circles, are modeled by the following formula: […]\nFive subjects with IPF were enrolled: Subject A received a single dose of 60 mg of the disclosed compound followed by a post-dose scan. Subject B received two doses of the disclosed compound separated by two weeks, 120 mg and 240 mg, each followed by a post-dose scan. Subject C received two doses of the disclosed compound separated by two weeks, 240 mg and 320 mg, each followed by a post-dose scan. Subject D received a single dose of 320 mg of the disclosed compound followed by a post-dose scan."}, "[4]": {"system": "Quantitative Lung Fibrosis (QLF)", "assay": "Phase 2a trial in IPF, HRCT-based Quantitative Lung Fibrosis", "assay_type": "in vivo, human", "conditions": "baseline to week 12, CT Protocol Population", "text": "The exploratory endpoints of the trial measured changes in forced vital capacity (FVC), HRCT-based Quantitative Lung Fibrosis score (QLF), and selected biomarkers over 3 months of treatment.\nFIG. 29 illustrates the Mean Percent Change in Quantitative Lung Fibrosis (the extent from baseline to week 12 in the CT Protocol Population), using High-Resolution Computed Tomography (HRCT) based Quantitative Lung Fibrosis (QLF) imaging."}}, "data": [{"smiles": "COCCN(CCCCc1ccc2c(n1)NCCC2)CC[C@H](Nc1ncnc2ccccc12)C(=O)O", "note": "[Compound 5, (S)-4-((2-methoxyethyl)(4-(5,6,7,8-tetrahydro-1,8-naphthyridin-2-yl)butyl)amino)-2-(quinazolin-4-ylamino)butanoic acid]", "values": [{"measurement": "SMAD3 phosphorylation (PSMAD3/SMAD3) in lung tissue", "setting": "SMAD3 phosphorylation; FIG. 2A", "value": "approximately 50 % of the untreated levels"}, {"measurement": "SMAD3 phosphorylation (PSMAD3/SMAD3) in cells isolated from BALF", "setting": "SMAD3 phosphorylation; FIG. 2B", "value": "approximately 50 % of the untreated levels"}, {"measurement": "Type I Collagen gene Col1a1 expression, normalized to DMSO control slices", "setting": "[1]", "value": "decreased Type I Collagen gene Col1a1 expression substantially"}, {"measurement": "oral bioavailability and pharmacokinetics", "setting": "[2]", "value": "good oral bioavailability and pharmacokinetics"}, {"measurement": "reduction in pSMAD2:SMAD2 ratio in BAL compared to the placebo group", "setting": "pSMAD2:SMAD2 ratio", "value": "≥ 50", "unit": "%"}, {"measurement": "Conc (Unbound Plasma Concentration)", "setting": "[3]; Subject A, single 60 mg dose", "value": 3.66, "unit": "nM"}, {"measurement": "Conc (Unbound Plasma Concentration)", "setting": "[3]; Subject B, 120 mg dose", "value": 10, "unit": "nM"}, {"measurement": "Conc (Unbound Plasma Concentration)", "setting": "[3]; Subject B, 240 mg dose two weeks after 120 mg", "value": 58.3, "unit": "nM"}, {"measurement": "Conc (Unbound Plasma Concentration)", "setting": "[3]; Subject C, 240 mg dose", "value": 103, "unit": "nM"}, {"measurement": "Conc (Unbound Plasma Concentration)", "setting": "[3]; Subject D, single 320 mg dose", "value": 33.6, "unit": "nM"}, {"measurement": "Improvers < −2% QLF extent change, (%)", "setting": "[4]; 40 mg (N = 15)", "value": 6.6, "unit": "%"}, {"measurement": "Median, QLF extent change", "setting": "[4]; 40 mg (N = 15)", "value": 1.50, "unit": "%"}, {"measurement": "Stable [−2, 2%) QLF extent change, (%)", "setting": "[4]; 40 mg (N = 15)", "value": 46.7, "unit": "%"}, {"measurement": "Worse > 2% QLF extent change, (%)", "setting": "[4]; 40 mg (N = 15)", "value": 46.7, "unit": "%"}, {"measurement": "Improvers < −2% QLF extent change, (%)", "setting": "[4]; 80 mg (N = 18)", "value": 11.1, "unit": "%"}, {"measurement": "Mean Difference (SD), QLF extent", "setting": "[4]; 80 mg (N = 18)", "value": 0.70, "unit": "%"}, {"measurement": "Median, QLF extent change", "setting": "[4]; 80 mg (N = 18)", "value": "−0.45", "unit": "%"}, {"measurement": "Stable [−2, 2%) QLF extent change, (%)", "setting": "[4]; 80 mg (N = 18)", "value": 72.2, "unit": "%"}, {"measurement": "Worse > 2% QLF extent change, (%)", "setting": "[4]; 80 mg (N = 18)", "value": 16.7, "unit": "%"}, {"measurement": "Improvers < −2% QLF extent change, (%)", "setting": "[4]; 160 mg (N = 14)", "value": 28.6, "unit": "%"}, {"measurement": "Mean Difference (SD), QLF extent", "setting": "[4]; 160 mg (N = 14)", "value": 0.00, "unit": "%"}, {"measurement": "Median, QLF extent change", "setting": "[4]; 160 mg (N = 14)", "value": "−0.10", "unit": "%"}, {"measurement": "Stable [−2, 2%) QLF extent change, (%)", "setting": "[4]; 160 mg (N = 14)", "value": 50.0, "unit": "%"}, {"measurement": "Worse > 2% QLF extent change, (%)", "setting": "[4]; 160 mg (N = 14)", "value": 21.4, "unit": "%"}]}]}
